Data reported in patent publication US20240115654A1, “INTRAVENOUS ADMINISTRATION OF ENGINEERED ANTIMICROBIAL AMPHIPHILIC PEPTIDES” (priority 2021, published 2024).
Where two headings read alike, the source gives them in different places. Peptide text beside a SMILES is read from it.

From the text: All subjects who met eligibility criteria were confined to the clinical research unit from […] through Day 3. At admission, physical examination, vital signs, 12 lead ECG and weight were obtained, medical and medication history were updated if necessary, safety blood tests (hematology and chemistry), urinalysis, urine drug screen and an alcohol breath test were repeated and a urine pregnancy test was done for women of childbearing potential.
At each dose level, there were 2 sentinel subjects, (1 active, 1 placebo), who were dosed at least 48 hours in advance of the other subjects in their respective group. Following review of safety data, including physical examination, vital signs, and review of adverse events from the first 2 subjects, enrolment in the cohort continued.
A 12-lead ECG was performed on Day 1, within 60 minutes of infusion start (in triplicate), mid-way through the infusion, at the completion of the infusion, 30 minutes after completion of the infusion and at various timepoints following the end of the infusion.
Vital signs were recorded within 60 minutes pre-dose, at the mid-point of the infusion and post dose vitals were assessed at completion of the infusion, 0.5, 1, 2, 3, 4, 6, 9, 12, 24 and 48 hours post dose, after at least 3 minutes of rest in supine position.
Subjects returned to the study center 7 days after dosing, for the termination visit. A full physical examination, vital signs and weight were obtained, concomitant medications were updated if necessary, safety blood specimens (haematology and chemistry, PT and aPTT) and urine were collected for urinalysis and urine drug screening. A serum pregnancy test was done for women of childbearing potential and a 12-lead ECG was performed.
In this study dose limiting toxicity (DLT) was defined as any drug related ≥Grade 3 AEs occurring despite optimal therapeutic interventions (which included but were not limited to allergic/hypersensitivity reactions, dermatological reactions/infusion site reactions, haematological toxicities such as neutropenia, thrombocytopenia and anaemia and clinical chemistry abnormalities) experienced up to Day 7 (Termination Visit).
(§1) All subjects who received any amount of study drug were included in the safety analysis (Safety population).
The study was a double blinded, randomized, placebo-controlled study. The placebo administered was 0.9% sodium chloride.
On Day 1 (day of dosing), subjects were randomly assigned either peptide IV or Placebo IV. At each dose level, there were 2 sentinel subjects, (1 active, 1 placebo), who were dosed at least 48 hours in advance of the other subjects in their respective group. Following review of safety data, including physical examination, vital signs, and review of adverse events from the first 2 subjects, enrolment in the cohort continued. All subjects who met eligibility criteria were confined to the clinical research unit from Day −2 through Day 3. At admission, physical examination, vital signs, 12 lead ECG and weight were obtained, medical and medication history were updated if necessary, safety blood tests (hematology and chemistry), urinalysis, urine drug screen and an alcohol breath test were repeated and a urine pregnancy test was done for women of childbearing potential.
as §1

[1] = Cohort 4: 0.5 mg/kg IV 2-hr infusion (N = 6)
[2] = Cohort 4: 0.5 mg/kg IV 2 hr infusion, subject 001-S086
[3] = Cohort 4: 0.5 mg/kg IV 2 hr infusion, subject 001-S093
[4] = Cohort 4: 0.5 mg/kg IV 2 hr infusion, subject 001-S094
[5] = Cohort 5 1 mg/kg IV 4-hr infusion, participant 001-S119
[6] = Cohort 5 1 mg/kg IV 4-hr infusion, participant 001-S127
[7] = Cohort 5: 1 mg/kg IV 4-hr infusion (N = 6)

For `CC(C)[C@H](NC(=O)[C@H](Cc1c[nH]c2ccccc12)NC(=O)[C@H](CCCNC(=N)N)NC(=O)[C@H](CCCNC(=N)N)NC(=O)[C@@H](NC(=O)[C@@H](NC(=O)[C@H](CCCNC(=N)N)NC(=O)[C@@H](NC(=O)[C@@H](NC(=O)[C@H](CCCNC(=N)N)NC(=O)[C@H](CCCNC(=N)N)NC(=O)[C@H](Cc1c[nH]c2ccccc12)NC(=O)[C@@H](NC(=O)[C@H](CCCNC(=N)N)NC(=O)[C@H](CCCNC(=N)N)NC(=O)[C@@H](NC(=O)[C@H](CCCNC(=N)N)NC(=O)[C@H](CCCNC(=N)N)NC(=O)[C@@H](NC(=O)[C@H](Cc1c[nH]c2ccccc12)NC(=O)[C@H](CCCNC(=N)N)NC(=O)[C@@H](N)CCCNC(=N)N)C(C)C)C(C)C)C(C)C)C(C)C)C(C)C)C(C)C)C(C)C)C(=O)N[C@@H](CCCNC(=N)N)C(=O)N[C@@H](CCCNC(=N)N)C(N)=O` [SEQ ID NO: 1] (H-RRWVRRVRRVWRRVVRVVRRWVRR-NH2), the “Treatment-related TEAE: Skin and Subcutaneous Tissue Disorders, participants n (%)” value [1] was 0, the “Treatment-related TEAE: Thrombocytopenia, participants n (%)” value [1] was 0 and the “Treatment-related TEAE: Vascular Disorders, participants n (%)” value [1] was 0. The “Treatment-related TEAE: Vessel puncture site erythema, participants n (%)” value [1] was 0, the “Treatment-related TEAE: Vessel puncture site pain, occurrences m” value [1] was 1 and the “Treatment-related TEAE: Vessel puncture site pain, participants n (%)” value [1] was 1 (16.7%). For the same molecule, the “Treatment-related TEAE: Vomiting, participants n (%)” value [1] was 0, the “Infusion related reaction: End Date/Time” value [2] was “End of Study” and the “Infusion related reaction: Severity Grade” value [2] was “Grade 1”. The “Infusion related reaction: Start Date/Time” value [2] was “Day 1/1 hour”, the “Infusion related reaction: Event” value (Cohort 4: 0.5 mg/kg IV 2 hr infusion, subject 001-S086, 0.5 mg/kg) was “Myalgia” and the “Infusion related reaction: End Date/Time” value [3] was “Day 1/12 hours”. For the same molecule, the “Infusion related reaction: Event” value [3] was “Discomfort at right”, the “Infusion related reaction: Severity Grade” value [3] was “Grade 1” and the “Infusion related reaction: End Date/Time” value [4] was “Day 1/2 hours”. For the same molecule, the “Infusion related reaction: Event” value [4] was “Right arm cannula”, the “Infusion related reaction: Severity Grade” value [4] was “Grade 1” and the “Severity of event: Localized IRR, Right arm” value (Cohort 5 1 mg/kg IV 4-hr infusion, participant 001-S113) was “Grade 1”. For the same molecule, the “Severity of event: Localized IRR, Left arm” value (Cohort 5 1 mg/kg IV 4-hr infusion, participant 001-S117) was “Grade 1”, the “Severity of event: Lightheadedness” value [5] was “Grade 1” and the “Severity of event: Localized IRR, Left arm” value [5] was “Grade 1”. For the same molecule, the “Severity of event: Pain at dosing site, Left arm” value (Cohort 5 1 mg/kg IV 4-hr infusion, participant 001-S120) was “Grade 1”, the “Severity of event: Localized IRR, Left arm” value (Cohort 5 1 mg/kg IV 4-hr infusion, participant 001-S122) was “Grade 1” and the “Severity of event: IRR, Right arm; pain in region of right biceps muscle” value [6] was “Grade 1”. The “Severity of event: Right-sided headache” value [6] was “Grade 1”, the “IRRs, events” value (Cohort 5, 1 mg/kg over 4 hours in 250 mL, 6 participants, all Grade 1) was 9 and the “Number of Participants Reporting at least: Onc TEAE Leading to Study Withdrawal, n (%)” value [7] was 0. The “Number of Participants Reporting at least: One Dose-Limiting Toxicity, n (%)” value [7] was 0, the “Number of Participants Reporting at least: One Related TEAE, n (%)” value [7] was 6 (100%) and the “Number of Participants Reporting at least: One Serious TEAE, n (%)” value [7] was 0. For the same molecule, the “Number of Participants Reporting at least: One TEAE Leading to Study Drug Discontinuation, n (%)” value [7] was 0, the “Number of Participants Reporting at least: One TEAE with Common Terminology Criteria for Adverse Events (CTCAE) Toxicity ≥ Grade 3, n (%)” value [7] was 0 and the “Number of Participants Reporting at least: One TEAE, n (%)” value [7] was 6 (100%). The “One Related TEAE, m” value [7] was 11, the “One TEAE, m” value [7] was 20 and the “Participants With At Least 1 TEAE, n (%)” value [7] was 6 (100%). The “Participants With At Least 1 TEAE, occurrences m” value [7] was 20, the “Participants With At Least 1 Treatment-Related TEAE, n (%)” value [7] was 6 (100%) and the “Participants With At Least 1 Treatment-Related TEAE, occurrences m” value [7] was 11. The “TEAE Severity Grade 1, m” value [7] was 19, the “TEAE Severity Grade 1, n (%)” value [7] was 6 (100%) and the “TEAE Severity Grade 2, m” value [7] was 1. The “TEAE Severity Grade 2, n (%)” value [7] was 1 (16.7%), the “TEAE by system organ class: Blood and Lymphatic System Disorders, participants n (%)” value [7] was 0 and the “TEAE by system organ class: Gastrointestinal Disorders, occurrences m” value [7] was 1. The “TEAE by system organ class: Gastrointestinal Disorders, participants n (%)” value [7] was 1 (16.7%), the “TEAE by system organ class: General Disorders and Administration Site Conditions, occurrences m” value [7] was 9 and the “TEAE by system organ class: General Disorders and Administration Site Conditions, participants n (%)” value [7] was 6 (100%). For the same molecule, the “TEAE by system organ class: Infections and Infestations, participants n (%)” value [7] was 0, the “TEAE by system organ class: Injury, Poisoning, and Procedural Complications, occurrences m” value [7] was 5 and the “TEAE by system organ class: Injury, Poisoning, and Procedural Complications, participants n (%)” value [7] was 4 (66.7%). The “TEAE by system organ class: Musculoskeletal and Connective Tissue Disorders, occurrences m” value [7] was 1, the “TEAE by system organ class: Musculoskeletal and Connective Tissue Disorders, participants n (%)” value [7] was 1 (16.7%) and the “TEAE by system organ class: Nervous System Disorders, occurrences m” value [7] was 2. The “TEAE by system organ class: Nervous System Disorders, participants n (%)” value [7] was 2 (33.3%), the “TEAE by system organ class: Respiratory, Thoracic, and Mediastinal disorders, participants n (%)” value [7] was 0 and the “TEAE by system organ class: Skin and Subcutaneous Tissue Disorders, occurrences m” value [7] was 2. The “TEAE by system organ class: Skin and Subcutaneous Tissue Disorders, participants n (%)” value [7] was 2 (33.3%), the “TEAE by system organ class: Vascular Disorders, participants n (%)” value [7] was 0 and the “TEAE severity Grade 1, occurrences m” value [7] was 19. For the same molecule, the “TEAE severity Grade 1, participants n (%)” value [7] was 6 (100%), the “TEAE severity Grade 2, occurrences m” value [7] was 1 and the “TEAE severity Grade 2, participants n (%)” value [7] was 1 (16.7%). For the same molecule, the “TEAE severity Grade 3, participants n (%)” value [7] was 0, the “TEAE severity Grade 4, participants n (%)” value [7] was 0 and the “TEAE severity Grade 5, participants n (%)” value [7] was 0. The “Treatment-related TEAE: Abdominal distension, participants n (%)” value [7] was 0.
